The values below come from US8580831B2, “Fluorinated aminotriazole derivatives” (Actelion Pharmaceuticals Ltd., priority 2009, dated 2013).

One data set has as its target T1, human ALX receptor (Homo sapiens, UniProt P25090).
T1 construct: expressed in transfected cells; host or cells: HEK293 (HEK293-hALXR-Ga16)
T1 sequence (P25090 1-351): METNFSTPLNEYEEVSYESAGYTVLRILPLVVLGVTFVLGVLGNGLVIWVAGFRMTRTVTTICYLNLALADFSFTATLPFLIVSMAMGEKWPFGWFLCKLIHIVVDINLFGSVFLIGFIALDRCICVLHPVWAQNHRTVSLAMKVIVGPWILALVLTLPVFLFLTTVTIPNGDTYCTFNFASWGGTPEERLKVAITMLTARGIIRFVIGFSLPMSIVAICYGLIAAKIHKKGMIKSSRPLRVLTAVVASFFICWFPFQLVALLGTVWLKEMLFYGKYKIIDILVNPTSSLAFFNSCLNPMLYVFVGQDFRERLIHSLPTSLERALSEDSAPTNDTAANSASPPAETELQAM
Briefly: Intracellular calcium measurements (FLIPR), ALX receptor agonistic activity. The format is cell-based. The note with it: HEK293-hALXR-Ga16 cells, calcium flux, normalized to WKYMVm 10 nM; read-out: EC50 (agonistic activity with respect to the ALX receptor). The method, then:
The ALX receptor agonistic activity of the compounds of formula (I) is determined in accordance with the following experimental method.
Intracellular Calcium Measurements:
Cells expressing recombinant human ALX receptor and the G-protein Ga16 (HEK293-hALXR-Ga16) were grown to 80% confluency in Growing Medium (GM). Cells were detached from culture dishes with a cell dissociation buffer (Invitrogen, 13151-014), and collected by centrifugation at 1′000 rpm at rt for 5 min in Assay Buffer (AB) (equal parts of Hank's BSS (Gibco, 14065-049) and DMEM without Phenol Red (Gibco, 11880-028)). After 60 min incubation at 37° C. under 5% CO2 in AB supplemented with 1 μM Fluo-4 (AM) (Invitrogen, F14202) and 20 mM HEPES (Gibco, 15630-056), the cells were washed and resuspended in AB. They were then seeded onto 384-well FLIPR assay plates (Greiner, 781091) at 50′000 cells in 70 μl per well and sedimented by centrifugation at 1′000 rpm for 1 min. Stock solutions of test compounds were made up at a concentration of 10 mM in DMSO, and serially diluted in AB to concentrations required for activation dose response curves. WKYMVm (Phoenix Peptides) was used as a reference agonist. A FLIPR Tetra instrument (Molecular Devices) was operated according to the manufacturer's standard instructions, adding 4 μl of test compound dissolved at 10 mM in DMSO and diluted prior to the experiment in assay buffer to obtain the desired final concentration. Changes in fluorescence were monitored before and after the addition of test compounds at lex=488 nm and lem=540 nm. Emission peak values above base level after compounds addition were exported after base line subtraction. Values were normalized to high-level control (WKYMVm compound, 10 nM final concentration) after subtraction of the base line value (AB addition).
(Calcium assays in cells follow changes in intracellular calcium, usually with a dye or a luminescent sensor.)

In data set [1] the test system is proteins of human liver microsomes (HLM). The experiment in a line: Covalent binding between reactive metabolites and proteins using human liver microsomes. In kind it is in vitro ADME. The method, then:
Assay for Covalent Binding Between Reactive Metabolites and Proteins Using Human Liver Microsomes
The objective of the described covalent binding assay is to determine the amount of covalent binding between reactive metabolites and proteins of human liver microsomes (HLM) per hour following incubation in the presence of an NADPH regenerating system. The measured covalent binding rate is expressed in pmol bound drug equivalent/mg protein/h. It is a well-known advantage if compounds have a low tendency to bind covalently to proteins.
The radiolabelled compounds (^3H or ^14C) were incubated at a concentration of 10 μM in a single 96 well plate with 1.0 mg/mL of human liver microsomes in 0.1 M phosphate buffer (pH 7.4). To this end, a volume of 2.5 μL 1 mM stock solution prepared in the respective solvent (ethanol) was added to a final volume of 250 μL. Incubations were performed in the absence or presence of the NADPH-regenerating system with glucose-6-phosphate dehydrogenase (20 IU/ml dehydrogenase, 25 μl with 11 mM NADP sodium salt, 100 mM glucose-6-phosphate disodium salt, 100 mM MgCl2 in 0.1 M Tris buffer, pH 7.4) and additionally in the absence or presence of 5 mM GSH to trap reactive intermediates. An initial blank value without NADPH without incubation was also determined to determine unspecific rapid binding. Reactions were initiated by addition of 25 μL of an NADPH-regenerating system and terminated after one hour by adding 200 μL of the incubation mixture on a multiscreen deep well solvinert 96 hydrophobic PTFE filter plate (Millipore, Zug, Switzerland) containing 260 μL of ice-cold acetonitrile. The precipitation of microsomal proteins was completed by shaking the plate at 600 rpm at a temperature of 15° C. for 15 min. Finally, the precipitated incubation was stored at 4° C. for 15 min in the fridge. Proteins and filtrates were separated by centrifugation at 1800 g for 20 min at 10° C. The protein pellet was washed to remove unspecific binding with 800 μL of methanol/0.1% sulfuric acid (v/v) by centrifugation at 1500 g, 10° C. and 2 min. The washing step was repeated six times. The washed protein pellet was redissolved by addition of 500 μL of aqueous 0.1% (w/v) NaOH/1% (w/v) SDS. The filter plate was shaken at 400 rpm for 45 min at 60° C. and centrifugated at 2000 g for 20 min at 35° C. This step was repeated once and the protein solutions were combined.
For the determination of total radioactivity, an aliquot of 400 μL protein solution was mixed with 4 mL of liquid scintillation cocktail (Irga Safe plus, Perkin Elmer, Zurich, Switzerland) and analyzed using a Tricarb 2300 TR liquid scintillation analyzer (Perkin Elmer) with luminescence correction and on-line quenching correction by means of an external standard (^133Ba). For the determination of total protein content, an aliquot of 20 μL protein solution was analyzed using the BCA protein assay kit (Perbio Science Switzerland SA, Lausanne, Switzerland). The amount of covalent binding to microsomal proteins was calculated as follows: Dividing the determined amount of bound drug equivalent with NADPH (background subtracted by the amount of bound drug equivalent without NADPH) by the calculated amount of protein of redissolved washed protein pellet in each well gives the amount of bound drug equivalent in pmol/mg protein per hour.
On the technique in general: Liver microsomes are vesicles of endoplasmic reticulum, rich in cytochrome P450 enzymes.

As a reminder, the EC50 is the concentration at which the effect is half-maximal.

`Cc1cc(F)cc(-c2oc(C)nc2C(=O)Nc2cnn(Cc3ccc(C(C)(F)F)o3)n2)c1` [Example 26, 5-(3-Fluoro-5-methyl-phenyl)-2-methyl-oxazole-4-carboxylic acid {2-[5-(1,1-difluoro-ethyl)-furan-2-ylmethyl]-2H-[1,2,3]triazol-4-yl}-amide]: at human ALX receptor, the EC50 came out at 742 nM. Still for that read-out and setting: for `Cc1nc(C(=O)Nc2cnn(Cc3ccc(C(C)(F)F)o3)n2)c(-c2cccc(OC(F)(F)F)c2)o1` [Example 27, 2-Methyl-5-(3-trifluoromethoxy-phenyl)-oxazole-4-carboxylic acid {2-[5-(1,1-difluoro-ethyl)-furan-2-ylmethyl]-2H-[1,2,3]triazol-4-yl}-amide] the value was 59 nM; for `CC(F)(F)c1ccc(Cn2ncc(NC(=O)c3ncoc3-c3ccccc3)n2)o1` [Example 28, 5-Phenyl-oxazole-4-carboxylic acid {2-[5-(1,1-difluoro-ethyl)-furan-2-ylmethyl]-2H-[1,2,3]triazol-4-yl}-amide], 6 nM; for `Cc1nc(C(=O)Nc2cnn(Cc3nc(C(C)(F)F)cs3)n2)c(-c2cccc(Cl)c2)o1` [Example 29, 5-(3-Chloro-phenyl)-2-methyl-oxazole-4-carboxylic acid {2-[4-(1,1-difluoro-ethyl)-thiazol-2-ylmethyl]-2H-[1,2,3]triazol-4-yl}-amide], 5.6 nM.

On to `CCc1nc(C(=O)Nc2cnn(Cc3nc(C(C)(F)F)cs3)n2)c(-c2ccccc2)o1` [Example 30, 2-Ethyl-5-phenyl-oxazole-4-carboxylic acid {2-[4-(1,1-difluoro-ethyl)-thiazol-2-ylmethyl]-2H-[1,2,3]triazol-4-yl}-amide], for which, at human ALX receptor, the EC50 was 11 nM. Regarding `Cc1cccc(-c2oc(C)nc2C(=O)Nc2cnn(Cc3nc(C(C)(F)F)co3)n2)c1` [Example 31, 2-Methyl-5-m-tolyl-oxazole-4-carboxylic acid {2-[4-(1,1-difluoro-ethyl)-oxazol-2-ylmethyl]-2H-[1,2,3]triazol-4-yl}-amide], the EC50 at human ALX receptor was 2.4 nM. For the same compound, the “Covalent binding profile compared to compounds of WO 2009/077990” value in data set [1] (in words, versus examples 18 and 75 of WO 2009/077990) is listed as “superior covalent binding profile”. In addition, the “Covalent binding, HLM with NADPH and GSH” value in data set [1] (tritiated compound 10 μM, 1.0 mg/mL HLM, 1 h, with NADPH and 5 mM GSH) worked out at 28 pmol/mg protein per hour. Further, the “Covalent binding, HLM with NADPH” value in data set [1] (tritiated compound 10 μM, 1.0 mg/mL HLM, 1 h, with NADPH-regenerating system) was determined as 22 pmol/mg protein per hour. Further, the “Covalent binding, HLM without NADPH” value in data set [1] (tritiated compound 10 μM, 1.0 mg/mL HLM, 1 h, without NADPH) is reported as 3 pmol/mg protein per hour. In data set [1] (tritiated compound 10 μM, 1.0 mg/mL HLM, 1 h, value without NADPH subtracted), the “Covalent binding, HLM with NADPH (background corrected as described above) [amount of bound drug equivalent]” value was determined as 19 pmol/mg protein per hour. On to `Cc1cccc(-c2oc(C)nc2C(=O)Nc2cnn(Cc3coc(C(C)(F)F)n3)n2)c1` [Example 32, N-(2-((2-(1,1-Difluoroethyl)oxazol-4-yl)methyl)-2H-1,2,3-triazol-4-yl)-2-methyl-5-(m-tolyl)oxazole-4-carboxamide], for which, at human ALX receptor, the EC50 was 12 nM.

For the compound `Cc1nc(C(=O)Nc2cnn(Cc3nc(C(C)(F)F)co3)n2)c(-c2ccccc2)o1` [Example 33, 2-Methyl-5-phenyl-oxazole-4-carboxylic acid {2-[4-(1,1-difluoro-ethyl)-oxazol-2-ylmethyl]-2H-[1,2,3]triazol-4-yl}-amide], the EC50 on human ALX receptor was found to be 2.9 nM. Turning to `CN(C)c1cccc(-c2ocnc2C(=O)Nc2cnn(Cc3nc(C(C)(F)F)co3)n2)c1` [Example 34, 5-(3-Dimethylamino-phenyl)-oxazole-4-carboxylic acid {2-[4-(1,1-difluoro-ethyl)-oxazol-2-ylmethyl]-2H-[1,2,3]triazol-4-yl}-amide], the concentration giving a half-maximal response (EC50) at human ALX receptor worked out at 6.1 nM.

Take `CN(C)c1cc(-c2ocnc2C(=O)Nc2cnn(Cc3nc(C(C)(F)F)co3)n2)ccc1F` [Example 35, 5-(3-Dimethylamino-4-fluoro-phenyl)-oxazole-4-carboxylic acid {2-[4-(1,1-difluoro-ethyl)-oxazol-2-ylmethyl]-2H-[1,2,3]triazol-4-yl}-amide]: the EC50 on human ALX receptor was found to be 4 nM. As for `Cc1nc(C(=O)Nc2cnn(Cc3nc(C(C)(F)F)co3)n2)c(-c2ccc(F)c(N(C)C)c2)o1` [Example 36, 5-(3-Dimethylamino-4-fluoro-phenyl)-2-methyl-oxazole-4-carboxylic acid{2-[4-(1,1-difluoro-ethyl)-oxazol-2-ylmethyl]-2H-[1,2,3]triazol-4-yl}-amide], the concentration for a half-maximal effect (EC50) on human ALX receptor stood at 77 nM.
